Converted amounts (≈) assume the structure as drawn.
Tests used:
Format in all cases: cell-based, Mycobacterium tuberculosis
[1] = tested on: Q112-resistant Mtb strains; assay: microbe, parasite or virus in culture
[2] = tested on: Mtb strain B3 tatA
[3] = tested on: Mtb strain A6 tatB
[4] = tested on: Mtb strain B2 tatC
[5] = tested on: Mtb strain B1 tatC
[6] = tested on: Mtb strain A3 tatB

With `CO[C@H]1/C=C/O[C@@]2(C)Oc3c(C)c(O)c4c(O)c(c(/C=N/N5CCN(C)CC5)c(O)c4c3C2=O)NC(=O)/C(C)=C\C=C\[C@H](C)[C@H](O)[C@@H](C)[C@@H](O)[C@@H](C)[C@H](OC(C)=O)[C@@H]1C` [Rifampicin] the “factor of MIC decrease (hypersensitivity) versus wild-type” value (shortened to “factor of MIC decrease”) [1] was 3–6 factor.

In the case of `C[C@]1(COc2ccc(N3CCC(Oc4ccc(OC(F)(F)F)cc4)CC3)cc2)Cn2cc([N+](=O)[O-])nc2O1` [Delamanid], the “MIC increase versus wild-type” value [1] was 3–12 fold.

Capreomycin was tested, and the “MIC B3 tatA” value [2] was 0.78 µM, the “MIC A6 tatB” value [3] was 1.2 µM and the “MIC B2 tatC” value [4] was 1.2 µM. For the same compound, the “MIC B1 tatC” value [5] was 0.78 µM and the “MIC A3 tatB” value [6] was 0.78 µM.

With `CN[C@H](CC(C)C)C(=O)N[C@H]1C(=O)N[C@@H](CC(N)=O)C(=O)N[C@H]2C(=O)N[C@H]3C(=O)N[C@H](C(=O)N[C@H](C(=O)O)c4cc(O)cc(O)c4-c4cc3ccc4O)[C@H](O)c3ccc(c(Cl)c3)Oc3cc2cc(c3O[C@@H]2O[C@H](CO)[C@@H](O)[C@H](O)[C@H]2O[C@H]2C[C@](C)(N)[C@H](O)[C@H](C)O2)Oc2ccc(cc2Cl)[C@H]1O` [Vancomycin] the “factor of MIC decrease” value [1] was 4–5 factor.

`CC(C)/N=c1\cc2n(-c3ccc(Cl)cc3)c3ccccc3nc-2cc1Nc1ccc(Cl)cc1` [Clofazimine] was tested, and the “resistance (MIC increase) versus wild-type” value [2] was 4 fold.

`C[C@@H](O)[C@H]1C(=O)N2C(C(=O)O)=C(SCCN=CN)C[C@H]12` [Imipenem] was tested, and the “resistance (MIC increase) versus wild-type” value [2] was 16 fold.

`CC1(C)S[C@@H]2[C@H](NC(=O)[C@H](N)c3ccccc3)C(=O)N2[C@H]1C(=O)O` [Ampicillin] was tested, and the “factor of MIC decrease” value [1] was over 16 factor and the MIC ([1]; Mycobacterium tuberculosis) was 1.6 to 3.1 µM (≈ 0.559 to 1.08 µg/mL).

From publication PMC9558617 (ACS infectious diseases, 2022)
